Assay results as given in patent US20050049299A1, “Selective inhibitors of stat-3 activation and uses thereof” (priority 2003, published 2005).

Assays:
[1] = test system: STAT3 phosphorylation; test: Constitutive STAT3 phosphorylation in U266 cells (Western blot); assay type: cell-based, human
[2] = test system: STAT3 phosphorylation; test: as above; assay type: cell-based, human; remark: listed apart in the source
Experimental: U266 cells (2×10^6) were treated with the indicated concentrations of curcumin for 1 h, or treated with 50 μM curcumin for the indicated durations and levels of phosphorylated-STAT3 (upper panel) and STAT3 (lower panel) were examined in whole cell extracts by Western Blotting. […] U266 cells (2×10^6) were treated with 50 μM curcumin for indicated durations, and examined for phosphorylated and nonphosphorylated-STAT3, and STAT5. […] U266 cells (2×10^6) were preincubated with curcumin (50 μM) for indicated durations before treatment with IFN-α (10 ng/ml) for additional 30 min and then examined for phosphorylated and nonphosphorylated-STAT1.
U266 cells (2×10^6 cells) were treated with 50 μM curcumin for the indicated durations (left panels) or treated for 1 h and washed with PBS two times to remove curcumin before resuspending in fresh medium. Cells were removed at indicated times and lysed to prepare the whole cell extract (right panels). Thirty micrograms of whole cell extracts were resolved on 7.5% SDS-PAGE, electrotransferred to a nitrocellulose membrane, probed for the phosphorylated-STAT3 (upper panels) and stripped and reprobed for STAT3 (middle panels) and β-actin (lower panels).
Thirty micrograms of whole-cell extract was resolved on 7.5% SDS-PAGE, electrotransferred to a nitrocellulose membrane, probed for the phospho-STAT3 (upper panel), stripped, and reprobed for STAT3 (middle panel) and β-actin (lower panel).
(§1) For detection of STAT proteins, whole-cell extracts were prepared by lysing the curcumin-treated cells in lysis buffer (20 mM Tris, pH 7.4, 250 mM NaCl, 2 mM EDTA, pH 8.0, 0.1% Triton-X100, 0.01 mg/ml aprotinin, 0.005 mg/ml leupeptin, 0.4 mM PMSF, and 4 mM NaVO4). Lysates were then spun at 14000 rpm for 10 min to remove insoluble material, and resolved on a 7.5% gel. After electrophoresis, the proteins were electrotransferred to a nitrocellulose membrane, blocked with 5% nonfat milk, and probed with anti-STAT antibodies (1:1000) overnight at 4° C. The blot was washed, exposed to HRP-conjugated secondary antibodies for 1 h, and finally examined by chemiluminescence (ECL, Amersham Pharmacia Biotech. Arlington Heights, Ill.).
Whether curcumin inhibits the constitutive STAT3 phosphorylation in U266 was investigated. U266 cells were incubated either with different concentrations of curcumin for 1 h or with 50 μM curcumin for different times. Curcumin inhibited the constitutively active STAT3 in a dose-(FIG. 1A) and time-(FIG. 1B) dependent manner. Curcumin-induced inhibition could be observed as early as 10 min and with a concentration as low as 10 μM.
Whether curcumin-induced inhibition of STAT3 phosphorylation was reversible was further examined. U266 cells were first treated for 60 min with curcumin, and then the cells were washed twice with PBS to remove curcumin. The cells were then cultured in the fresh medium for various durations, and the levels of phosphorylated STAT3 were measured.
In comparison, treatment of cells with 50 μM curcumin for 60 minutes was sufficient to inhibit STAT3 phosphorylation (see FIGS. 1A and 1B).

[3] = test system: STAT3 phosphorylation; test: Constitutive STAT3 phosphorylation in MDA 1986LN cells (Western blot); assay type: cell-based, human; settings: AG490 100 μM, 8 hrs
Experimental: TU167, MDA 1986LN, TU 686, MDA 686LN and JMAR cells (2×10^6 cells) were lysed and whole cell extracts (30 μg) were resolved on 7.5% SDS-PAGE, electrotransferred to a nitrocellulose membrane and probed for phosphorylated-STAT3 (p-STAT3) and total STAT3 proteins. […] MDA 1986LN cells (2×10^6 cells) were treated with curcumin (50 μM) for indicated durations or with indicated concentrations of curcumin for 1 h and levels of p-STAT3 (upper panels) and STAT3 (lower panels) were examined in whole cell extracts by Western blotting.
MDA 1986LN cells (2×10^6 cells) were treated with curcumin (50 μM) for the indicated durations (upper panels) or treated for 1 h and washed twice with PBS to remove curcumin before re-suspending in fresh medium. Cells were removed at indicated times and lysed to prepare the whole cell extract (lower panels). The whole cell extracts (30 μg) were resolved on 7.5% SDS-PAGE, electrotransferred to a nitrocellulose membrane, probed for the p-STAT3 (upper panels) and striped and reprobed for STAT3 (lower panels).
MDA 1986LN cells (2×10^6 cells) were treated with indicated concentrations of AG490 for 8 h and whole extracts prepared. These whole-cell extracts (30 μg) were resolved on 7.5% SDS-PAGE, electrotransferred to a nitrocellulose membrane, probed for p-STAT3 (upper panel), striped and reprobed for STAT3 (middle panel) and β-actin (lower panel). […] The cells were treated with AG490 (100 μM) for the indicated durations and whole cell extracts prepared and analyzed as mentioned earlier. FIG. 15C compares the effect of curcumin and AG490 on proliferation of MDA 1986LN cells by MTT assay.
Since STAT3 was constitutively phosphorylated in MDA 1986LN cells, the ability of curcumin to inhibit the constitutive STAT3 phosphorylation was examined. MDA 1986LN cells were treated either with curcumin (50 μM) for different durations or with different concentrations of curcumin for 1 h and the p-STAT3 levels and STAT3 levels were determined. Curcumin inhibited the constitutively active STAT3 in a time-(FIG. 11B) and a dose-(FIG. 11C) manner. This curcumin-induced inhibition could be observed as early as 30 min and with a concentration as low as 25 μM.
MDA 1986LN cells were treated with curcumin for indicated times or for 1 h and the cells were washed twice with PBS to remove curcumin. The cells were then cultured in media for various durations and the levels of phosphorylated STAT3 were determined. […] However, the STAT3 levels were unaffected by curcumin treatment.
The concentration and the exposure time for AG490 to inhibit STAT3 phosphorylation in MDA 1986LN cells were determined. These cells were incubated with either different concentrations of AG490 or with 100 μM of AG490 for different durations and the levels of p-STAT3 and STAT3 were assessed.

[4] = test system: multiple myeloma cells; test: Proliferation of multiple myeloma cells, curcumin vs AG490 (data not shown); assay type: cell-based, human; settings: 100 μM, 24 hours (data not shown)
[5] = test system: MDA 1986LN, JMAR and MDA 686LN cells; test: IL-6-induced proliferation of human HNSCC cells (thymidine incorporation); assay type: cell-based; settings: serum starved 12 hrs, IL-6 48 hrs
Experimental: Human head and neck squamous cell carcinoma cells MDA 1986LN, JMAR and MDA 686LN were serum starved for 12 hrs. These cells were then cultured with the indicated concentrations of IL-6 for 48 hrs in serum-free medium. Cell viability was determined by thymidine incorporation method.
The present invention also investigated the effect of IL-6 on the proliferation of human HNSCC cells such as MDA 1986LN, JMAR and MDA 686LN by thymidine incorporation method. These cells were serum starved for 12 hrs and then cultured with different concentrations of IL-6 for 48 hrs in serum-free medium.

[6] = test system: STAT3 phosphorylation; test: IL-6-inducible STAT3 phosphorylation in RPMI 8226 cells (Western blot); assay type: cell-based, human; settings: IL-6 10 ng/ml
Experimental: FIGS. 3A-C show& that IL-6 induces STAT3 phosphorylation in human multiple myeloma RPMI 8226 cells and curcumin inhibits it. […] U266, RPMI 8226, MM.1S, MM.1R and OCl cells (2×10^6) were lysed, and 30 μg of whole-cell extracts were resolved on 7.5% SDS-PAGE, electrotransferred to a nitrocellulose membrane, and probed for phosphorylated-STAT3 (upper panel) and STAT3 (lower panel). […] Thirty micrograms of whole cell extracts were resolved on 7.5% SDS-PAGE, electrotransferred to a nitrocellulose membrane, and probed for the phosphorylated-STAT3 (upper panel) and stripped and reprobed for STAT3 (middle panel) and β-actin (lower panel).
as §1
Since IL-6 is a growth factor for multiple myeloma and induces STAT3 phosphorylation (5, 6, 15), whether curcumin could inhibit IL-6-induced STAT3 phosphorylation was examined. […] IL-6 induced phosphorylation of STAT3 as early as 5 min and began to decline at 60 minutes (FIG. 3B). RPMI 8226 cells were then incubated with curcumin for different times and examined for IL-6-inducible STAT3 phosphorylation.
Exposure of cells to curcumin for 4 hours was sufficient to completely suppress IL-6-induced STAT3 phosphorylation. Curcumin alone had no effect on STAT3 phosphorylation in these cells (data not shown).

[7] = test system: STAT3 phosphorylation; test: IL-6-induced STAT3 phosphorylation in JMAR cells (Western blot); assay type: cell-based, human; settings: IL-6 10 ng/ml
Experimental: JMAR cells (2×10^6 cells) were treated with IL-6 (10 ng/ml) for the indicated time and whole cell extracts were prepared. These extracts (30 μg) were resolved on 7.5% SDS-PAGE, electrotransferred to a nitrocellulose membrane and probed for p-STAT3 (upper panel) and stripped and re-probed for STAT3 (lower panel). […] JMAR cells were pretreated with curcumin (50 μM) for indicated durations and stimulated with IL-6 (10 ng/ml) for 10 mins and whole cell extract prepared and probed as mentioned earlier.
JMAR cells were treated with IL-6 for different durations and the levels of p-STAT3 and STAT3 were examined. Treatment with IL-6 as early as 5 mins induced STAT3 phosphorylation in JMAR cells (FIG. 14A, upper panel). However, STAT3 levels were unaffected (FIG. 14A, lower panel).
Further, since IL-6 induced STAT3 phosphorylation in JMAR cells, the ability of curcumin to inhibit this STAT3 phosphorylation was also examined. JMAR cells were pretreated with curcumin for different durations and stimulated with IL-6 for 10 minutes. Both the status of p-STAT3 and STAT3 were determined in the whole cell extracts of these cells. Treatment with curcumin for as early as 30 minutes led to decline in the phosphorylation of STAT3 which declined further with increased exposure to curcumin. Exposure to curcumin for 2 hours inhibited STAT3 phosphorylation in JMAR cells (FIG. 14B, upper panel). The STAT3 levels were unaffected by this treatment (FIG. 14B, lower panel).

[8] = test system: MM.1R cells; test: IL-6-induced proliferation of MM.1R cells; assay type: cell-based, human; settings: serum starved 12 h, IL-6 48 h
Experimental: (§2) FIGS. 7A-B show& that IL-6 induces proliferation of human multiple myeloma cells and curcumin inhibits it. […] Cell proliferation assays were performed as described below. Results are shown as mean (±s.d.) of percent [^3H] thymidine incorporation or percent proliferation by MTT of triplicate cultures compared to the untreated control.
(§3) The antiproliferative effects of curcumin against different multiple myeloma cell lines were determined by the MTT dye uptake method as described earlier (28). Briefly, the cells (5000/well) were incubated in triplicate in a 96-well plate in the presence or absence of indicated test samples in a final volume of 0.1 ml for 24 h at 37° C. […] The OD at 570 nm was measured using a 96-well multiscanner autoreader (Dynatech MR 5000), with the extraction buffer serving as blank. Percent cell viability cell viability was calculated using the following formula: Percent cell viability=(OD of the experiment samples/OD of the control)×100.
(§4) The antiproliferative effects of curcumin were also monitored by the thymidine incorporation method. […] Six hours before the completion of experiment, cells were pulse treated with 0.5 μCi [^3H]thymidine, and the uptake of [^3H]thymidine was monitored using a Matrix-9600 β-counter (Packard Instruments, Downers Grove, Ill.). […]
(§5) Whether curcumin suppresses the proliferative effects of IL-6 was determined.

[9] = test system: MM.1 cells; test: IL-6-induced proliferation of MM.1 cells; assay type: cell-based, human; settings: serum starved 12 h, IL-6 48 h
Experimental: as §2, §3, §4, §5

[10] = test system: U266 cells; test: IL-6-induced proliferation of U266 cells (thymidine incorporation, MTT); assay type: cell-based, human; settings: serum starved 12 h, IL-6 48 h
Experimental: as §2, §3, §4, §5

[11] = test system: STAT3 phosphorylation; test: STAT3 phosphorylation in MM.1S and MM.1R cells after TNF, LT or IL-6 (Western blot); assay type: cell-based, human; settings: IL-6 10 minutes (positive control)
Experimental: The cell proliferation assay was performed as described below. Results are shown as mean (±s.d. indicated by error bar) of percent [^3H] thymidine incorporation of triplicate cultures compared to the untreated control. […] Cells were treated with IL-6 for 10 minutes as a positive control for STAT3 phosphorylation. Thirty micrograms of whole cell extract was were resolved on 7.5% SDS-PAGE, electrotransferred to a nitrocellulose membrane, and probed for phosphorylated-STAT3 (upper panel), stripped, and reprobed for STAT3 (lower panel).
as §1
MM.1S and MM.1R cells were serum starved for 12 h and then treated with TNF or lymphotoxin in the serum free medium.

[12] = test system: RPMI 8226 cells; test: IL-6-induced proliferation of RPMI 8226 cells; assay type: cell-based, human; settings: serum starved 12 h, IL-6 48 h
Experimental: as §2
The antiproliferative effects of curcumin were also monitored by the thymidine incorporation method. For this, 5000 cells in 100 μl medium were cultured in triplicate in 96-well plates in the presence or absence of curcumin for 24 h. Six hours before the completion of experiment, cells were pulse treated with 0.5 μCi [^3H]thymidine, and the uptake of [^3H]thymidine was monitored using a Matrix-9600 β-counter (Packard Instruments, Downers Grove, Ill.).
To reconfirm previous reports (5, 6, 15, 31) that IL-6 induces proliferation of MM cells, U266, RPMI 8226, MM.1 and MM.1R were serum-starved for 12 h and then cultured them in the absence or presence of different concentrations of IL-6 for 48 h.

Row | Molecule | exposure needed to completely inhibit STAT3 phosphorylation ([1]; 100 μM AG490) [h] | dose needed to completely inhibit STAT3 phosphorylation ([1]; 8 h) [µM] | dose needed to suppress STAT3 phosphorylation (comparison AG490 vs curcumin) [2] [µM] | inhibition of STAT3 phosphorylation [3] | proliferation of multiple myeloma cells [4] | proliferation of human HNSCC cells induced by IL-6 [5] | earliest time of IL-6-induced phosphorylation of STAT3 [6] [min] | time at which IL-6-induced STAT3 phosphorylation began to decline [6] [min] | earliest time of IL-6-induced STAT3 phosphorylation [7] [min] | proliferation of MM.1R cells induced by IL-6 [8] | proliferation of MM.1 cells induced by IL-6 [9] | proliferation of U266 cells induced by IL-6 [10] | induction of STAT3 phosphorylation [11] | proliferation response of RPMI 8226 cells to IL-6 [12]
1 | N#C/C(=C/c1ccc(O)c(O)c1)C(=O)NCc1ccccc1 [AG490] | 8 | 100 | 100 | completely inhibited | no effect | – | – | – | – | – | – | – | – | –
2 | IL-6: bacteria-derived recombinant human IL-6 provided by Sandoz Pharmaceutical | – | – | – | – | – | induced proliferation of MDA 1986LN, JMAR and MDA 686LN cells | 5 | 60 | 5 | induced proliferation | induced proliferation | induced proliferation | induced STAT3 phosphorylation in both cell lines | did not respond
